Measured values published in patent US5672604A, “1-phenylmethyl benzimidazole piperazine derivative” (Fabrica Espanola de Productos Quimicos y Farmaceuticos …, priority 1993, dated 1997).
Read-outs that look alike come from different tables or passages of the source.

Assays:
[1] = molecular target: T1, 5HT3 receptor (Cavia porcellus, UniProt O70212); assay: Inhibition of 2-methyl-serotonin induced contraction of guinea pig ileum
T1 construct: Guinea pig ileum fragments; from tissue; host or cells: guinea pig ileum fragments
T1 sequence (O70212 20-490): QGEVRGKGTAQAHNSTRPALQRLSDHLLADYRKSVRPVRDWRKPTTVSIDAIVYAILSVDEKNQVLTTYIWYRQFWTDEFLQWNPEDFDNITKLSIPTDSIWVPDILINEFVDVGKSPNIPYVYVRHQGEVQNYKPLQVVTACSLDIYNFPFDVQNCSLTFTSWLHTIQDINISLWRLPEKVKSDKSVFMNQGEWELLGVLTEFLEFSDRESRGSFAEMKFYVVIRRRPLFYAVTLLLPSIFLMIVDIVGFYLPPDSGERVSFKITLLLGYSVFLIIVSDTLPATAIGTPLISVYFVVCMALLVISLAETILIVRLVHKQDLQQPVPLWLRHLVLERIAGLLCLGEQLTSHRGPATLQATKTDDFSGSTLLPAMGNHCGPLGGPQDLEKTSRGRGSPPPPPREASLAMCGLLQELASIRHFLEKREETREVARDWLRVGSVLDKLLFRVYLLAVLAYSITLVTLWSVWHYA
Protocol: b) Guinea pig ileum fragments were submerged in K-H solution at 37° C. pH 7.4, oxygenated with carbogen (95% O2 and 5% CO2) and with an effective preload of 1-2 g. They remained in a stabilization period for 45-60 minutes. and the physiological solution was replaced every 15 minutes. After this time, contractions were induced every 15 minutes, adding 2-methyl-serotonin (final conc.: 10 μmol/l). […] The inhibition percentages and CI50 were subsequently calculated (Table I).

[2] = system: serotonin 5HT3 receptor; assay: Inhibition of serotonin-induced Bezold-Jarisch reflex in anaesthetised rat; format: in vivo, Wistar rats; details: i.v., 5 minutes before serotonin
Protocol: After the arterial pressure (A.P.) and cardiac frequency (C.F.) parameters were stabilised, bradycardia reflex was induced by i.v. injection (the different dose of the drug tested) of 80 μv/kg (1 ml/kg) of serotonin dissolved in sterile physiological serum. Ten minutes later and after taking CF and AP back to constant levels, the products claimed herein were injected i.v. and after a lapse of five minutes, i.v. injection of the serotonin creatinine sulphate complex was repeated, quantifying the inhibition of the Bezold-Jarisch reflex.

[3] = molecular target: T2, 5HT3 (Rattus norvegicus, UniProt P35563); assay: Bind 5HT3 cort-ento; format: binding; details: read-out: Bind 5HT3 cort-ento pki (converted)
T2 construct: cort-ento; from tissue; host or cells: entorhinal cortex ('cort-ento')
T2 sequence (P35563 24-483): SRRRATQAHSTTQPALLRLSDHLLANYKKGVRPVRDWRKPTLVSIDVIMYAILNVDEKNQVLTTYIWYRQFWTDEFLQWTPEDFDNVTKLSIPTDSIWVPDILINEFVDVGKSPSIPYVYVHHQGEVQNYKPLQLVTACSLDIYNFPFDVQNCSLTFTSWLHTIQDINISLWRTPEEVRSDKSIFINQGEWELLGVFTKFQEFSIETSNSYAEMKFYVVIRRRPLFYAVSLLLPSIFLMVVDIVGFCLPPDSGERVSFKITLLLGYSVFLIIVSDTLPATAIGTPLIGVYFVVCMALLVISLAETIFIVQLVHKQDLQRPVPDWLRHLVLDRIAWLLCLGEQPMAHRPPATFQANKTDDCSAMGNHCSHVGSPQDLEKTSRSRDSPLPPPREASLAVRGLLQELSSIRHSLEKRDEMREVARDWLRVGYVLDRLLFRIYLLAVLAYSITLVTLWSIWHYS

[4] = guinea pig ileum, contraction by 2-methyl-serotonin 10 μmol/l, incubation 15 minutes, read-out: 2-me-5HT g.p. ileum CI50

Row | SMILES | IC50 [1, 4] | also measured
1 | Cc1ccc2c(c1)nc(N1CCNCC1)n2Cc1ccccc1 [Product 1, 5-methyl-1-phenylmethyl-2-piperazinyl-1H-benzimidazole] | 0.0283 µM | 
2 | Clc1ccc2c(c1)nc(N1CCNCC1)n2Cc1ccccc1 [Product 2] |  | IC50 [1]: 0.0072 µM
3 | Oc1ccc2c(c1)nc(N1CCNCC1)n2Cc1ccccc1 [Product 5] | 0.116 µM | 
4 | Clc1cc2nc(N3CCNCC3)n(Cc3ccccc3)c2cc1Cl [Product 6] | 0.265 µM | 

Continued, in another order:

Row | IC50 [1, 4] | SMILES | also measured
5 | 0.0105 µM | O=[N+]([O-])c1ccc2c(c1)nc(N1CCNCC1)n2Cc1ccccc1 [Product 3] | B-J reflex rat-anaesth. DE50 [2]: 7.4 μg/kg iv; Ki [3]: 0.0398 µM
6 | 0.00165 µM | Fc1ccc2c(c1)nc(N1CCNCC1)n2Cc1ccccc1 [Product 4] | 
